Patent US6620808B2, “Endocrine modulation with positive modulators of AMPA type glutamate receptors” (The Regents of the University of California, priority 1997, dated 2003)

Test system: Sections of the hypothalamus containing the arcuate nucleus
Test: release of GHRH from hypothalamic explants in static culture
Format: cell-based, rats
Conditions: GR87 at 100 μm
Description: The arcuate nucleus of the hypothalamus contains the majority of cells that synthesize GHRH and secrete the releasing factor into the anterior pituitary. Sections of the hypothalamus containing the arcuate nucleus were explanted from postnatal day 10-12 rats and maintained in static culture. Once established, these cultures were used to test the prediction that positive, allosteric modulators of AMPA type glutamate receptors will increase the release of GHRH from the hypothalamus into the culture medium. Explants were exposed to GR87 at 100 μm for four hours on some days and to vehicle for the same period on other days. Concentrates of the media were prepared following the exposure periods of GHRH assayed using a commercially available kit. Using a within culture design, i.e. drug vs. vehicle in the same tissue well, provided a control for differences in tissue thickness and the extent to which the arcuate was contained within the explants. As shown, the amount of GHRH in the media was about threefold greater after four hours of treatment with ampakine than it was after an equivalent period of vehicle application. This effect was in the predicted direction and was statistically significant (p=0.011).
A single experiment was conducted to test if prolonged administration of GR87 at 100 μm would affect GHRH secretion. […]

O=C(c1ccc2c(c1)OCCO2)N1CCCCC1 [GR87]
media level of GHRH (24 hours, group of 12 explants (controls 18 ng/400 μl)): 47 ng/400 μl | amount of GHRH in the media relative to vehicle application (four hours, within-culture drug vs vehicle, p=0.011): about threefold
